Tests used:
[1] = tested on: human multilayered epidermis; test: Glycerol film retention on in vitro human multilayered epidermis (MTT cell viability); type: cell-based
Experimental: In the absence of any specific in vivo model to study the duration of the film retention by a biological surface, an in vitro model of human multilayered epidermis was used to evaluate the effects of the addition of non-cytotoxic concentrations of different PCD-rich plant extracts, either singly or in different associations, on glycerol film retention. Human epidermis was grown on a permeable polycarbonate filter (1 cm diameter) and was kept on a sponge soaked with culture medium, its outer surface remaining in contact with air, as is the case in vivo. Through capillary action, the culture medium diffuses through the polycarbonate filter and supplies nourishment to the epidermal cells to keep those cells alive.
Inserting one or two additional polycarbonate filters increases the distance between the culture medium and the cells; the amount of available medium, which reaches the cells, then decreases, and in absence of nutrients and hydration, the cells die. […] The percentage of live cells is proportional to the duration of retention of the glycerol film by the epidermal surface.
Various glycerol preparations containing test products (mainly PCD-rich plant extracts), at concentrations varying between 0.1 and 5.0%.
Quantity of Test Product Applied Per Epidermis: 20 μl
Glycerol preparations were directly applied on the epidermis as thin layer with the help of a pipette (n=6 per concentration): the epidermis was placed on two filters and the test product was applied on the epidermis surface. The filters were kept on a sponge, which was inserted in a petri dish containing an appropriate quantity of medium to nourish the cells. […]
The cell viability was scored as follows: • Score 4: 100% cells (compared to the controls) with intense blue color. • 3: Approximately 75% live cells with dark blue color. • 2: Approximately 50% live cells with medium blue color. • 1: Approximately 25% live cells with light blue color. • 0: No live cells, whitish epidermis color. […]

diabetic ulcers = conditions: human, in vivo
Experimental: Samples of wound fluid (100 μl) were collected at hourly intervals over a 6 h period, and the quantity of glycerol was measured.

[2] = tested on: human epidermis (normal human epithelial cells); test: In vitro osmotic/hydrating properties on dehydrated human epidermis culture; type: cell-based; conditions: 20 μl, day 7, filmogen glycerol = preparation n° 2 in Example 5 (Orosol)
From the text: In the absence of in vivo models to mimic the osmotic exudation of hypotonic liquid from the oral or vaginal mucosa, a cell culture model of human epidermis was used which contains normal human epithelial cells grown on a polycarbonate filter in an air/liquid phase. Under optimal conditions, a multilayered cell culture, equivalent to the mucosal surface is obtained on a polycarbonate support. This support is placed on a sponge in contact with a defined amount of culture medium. The medium diffuses into the sponge and the filter, and supplies nutrients as well as hydration to the cells. Under these conditions, the cell culture can be kept alive for at least a week.
To create an experimental model of mucosa dryness, we inserted one or two extra filters between the cells and the sponge, thereby reducing the amount of liquid medium available to the cells. In absence of hydration, cells die, and the cell mortality can be measured with a vital dye MU. Cell mortality is proportional to the culture surface's dryness. […]
The aim of this study was to evaluate the hydrating properties of filmogen glycerol compared to regular glycerol. […] Each epidermis was washed by stirring the culture in culture medium for 20 seconds on days 1, 3 and 5, and cell viability was measured on day 7 using MU staining.

rat dorsal skin lesions = test: In vivo rat wound healing; conditions: 0.2 ml per lesion for 7 consecutive days, filmogen glycerol as per the example N° 6
Experimental: The rat dorsal skin was shaved and 3 circular lesions, […] in diameter and depth, were made to the hypodermis with a dermatome. 0.2 ml of each test product was applied on each lesion for 7 consecutive days. Lesion diameter was measured every day and mean values were compared.

[3] = tested on: free virus particles present on the surface of labial herpes lesions; test: Clinical study 3: free virus particles on labial herpes lesions (Tzank test); type: in vivo, human (patients); conditions: labial lesion smears, twice daily application
Experimental: Labial lesion smears were collected and mean virus concentration was measured by quantifying the number of multinucleated virus-infected giant cells in each lesion using Tzank test, and the mean amount of free virus particles was determined in both groups.

[4] = tested on: nasal sinus infection (rhinosinusitis); test: Clinical study 4: rhinosinusitis; type: in vivo, human (patients)
Experimental: A 21-day controlled clinical trial of G-PCD compared to glycerol alone in patients suffering from acute symptoms of nasal sinus infection was performed.
The aim of this study was to evaluate the sinus-opening efficacy of G-PCD solution (32% glycerol, 1% plant PCDs in water) as per the example N° 5, compared to glycerol alone (32% glycerol in water). Among 127 patients suffering from acute and chronic sinusitis 109 were selected for the study. 58 patients were treated with G-PCD and 51 with glycerol. Products were administered as sprays (3 at each treatment application), 2-3 times per day for a maximum period of 21 days.
The parameters studied were: 1. Effect on nasal congestion and runny nose; 2. Effect on pain upon pressure around the nasal sinus surface; 3. Overall condition of the patient with respect to sinus infection; and 4. The influence on antibiotic therapy. […] Only 21% patients in the G-PCD group required antibiotic therapy for an average 7.41 days compared to 40% in the glycerol group for a period of 10.5 days (FIG. 8)

[5] = Osmolality and osmotic pressure of glycerol and seawater; type: physicochemical; conditions: pure glycerol
From the text: An injured skin or mucosa acts as a semi-permeable membrane and allows osmosis to occur. The flow of solvents across a semi-permeable membrane constitutes the osmotic flow or osmosis. The pressure required to achieve osmotic equilibrium is known as osmotic pressure. The higher the concentration of a […], the more osmotic pressure it exerts. Fresh water is considered isotonic with a density of 1000 kg/m^3. […] Osmotic pressure exerted by glycerol is nearly 10 times higher compared to seawater. The solute concentration of glycerol is also much higher compared to seawater. It is the total solute concentration in a solution that determines the osmotic flow of liquid, as osmosis is driven by differences in solute/solvent concentrations that exist across a semi-permeable membrane. The total solute concentration can be determined through the osmolality of the solution. […] Therefore, glycerol could have been a product of choice for application on infected surfaces in order to generate osmotic outflow of hypotonic liquid and to clean the injury. Unfortunately, the exudating hypotonic liquid immediately dilutes the glycerol and drains it from the wound surface within a few minutes, limiting these cleaning effects.

[6] = seawater containing […] NaCl; pure glycerol; cited from earlier work
[7] = spray 2-3 times per day, glycerol = 32% glycerol in water

OCC(O)CO [glycerol]
cell survival % after 72 h ([1]; 20 μl on epidermis placed on two filters, 37° C., 5% CO2, 72 h, MTT): 23.85 (±4.8) % | higher cell survival compared to the positive controls ([1]; 72 h, positive controls without product 6.32%): 17.53% | cells die within 72 h ([1]; glycerol control, free of any PCD extract): 60-70% | glycerol eliminated from the wound within 1 hour (diabetic ulcers; 1 h): ~92% | glycerol eliminated from the wound within 2 hours (diabetic ulcers; 2 h): 100% | Mean score of cell survival after 1-week culture, partially dehydrated cultures ([2]; 1 extra filter): 62.3% | Mean score of cell survival after 1-week culture, severely dehydrated cultures ([2]; 2 extra filters): 43.15% | Mean lesion size (diameter/day/lesion during 7 days) (rat dorsal skin lesions): 2.95 cm^2 | mean amount of free virus particles, day 1 [3]: > 750 | mean amount of free virus particles, day 4 [3]: 635 (±17.51) | mean amount of free virus particles, day 7 [3]: 542 (±22.35.) | mean amount of free virus particles, day 14 [3]: 522 (±13.50) | patients requiring antibiotic therapy ([4]; 21-day trial): 40% | average duration of antibiotic therapy ([4]; patients who required antibiotics): 10.5 days | nasal congestion symptom change after 30 minutes [4, 7]: −20.40% | nasal congestion symptom change after 3 days [4, 7]: −19.09% | nasal congestion symptom change after 7 days [4, 7]: −30.25% | overall rhinosinusitis condition change after 30 minutes [4, 7]: −22.56% | overall rhinosinusitis condition change after 3 days [4, 7]: +3.52% | overall rhinosinusitis condition change after 7 days [4, 7]: −17.62% | sinus pain symptom change after 30 minutes [4, 7]: −1.69% | sinus pain symptom change after 3 days [4, 7]: −8.36% | sinus pain symptom change after 7 days [4, 7]: −53.36% | increase in intensity of runny nose ([4]; within 30 minutes of first product administration): 31.71% | osmotic activity compared to seawater [5]: ~18 times | osmolality (total solute/mol wt/kg) [6]: 10.86 mols/kg
